Publication PMC9607081 (Membranes, 2022)
Changes are numbered by the printed parent chain. Where two headings read alike, the source gives them in different places.

Assays:
Format in all cases: cell-based
[1] = target: T1, human GlyR α1 subunit P96A (Homo sapiens, UniProt P23415, P124A); assay: Two-electrode voltage clamp of Xenopus oocytes expressing P96A GlyR; settings: for nH (Hill coefficient): Table 1, n = 5; for EC50: Table 1, −60 mV
T1 construct: expressed in transfected cells; host or cells: Xenopus laevis oocytes injected with receptor mRNA
T1 sequence (P23415 29-457 P124A): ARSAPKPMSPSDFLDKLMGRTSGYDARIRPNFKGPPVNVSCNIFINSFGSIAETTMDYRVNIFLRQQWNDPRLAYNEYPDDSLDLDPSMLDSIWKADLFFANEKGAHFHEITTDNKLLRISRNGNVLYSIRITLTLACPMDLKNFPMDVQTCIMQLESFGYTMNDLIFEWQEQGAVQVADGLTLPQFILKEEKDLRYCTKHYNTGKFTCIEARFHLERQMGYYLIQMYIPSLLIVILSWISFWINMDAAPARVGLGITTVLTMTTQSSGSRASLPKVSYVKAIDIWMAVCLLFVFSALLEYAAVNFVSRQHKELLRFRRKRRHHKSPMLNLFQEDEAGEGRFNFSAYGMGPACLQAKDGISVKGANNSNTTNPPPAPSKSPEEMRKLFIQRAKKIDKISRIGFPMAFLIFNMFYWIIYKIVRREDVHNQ
Method: Injection volumes were 50–100 nL per cell.
All experiments were performed at 22–25 °C. […] The holding potential was −60 mV unless otherwise specified.

[2] = target: T2, human GlyR α1 subunit P146 (CysL) substituted with Pro (Homo sapiens, UniProt P23415); assay: TEVC, oocytes, nonsense suppression, P146 Pro recovery; settings: for EC50: Table 3, nonsense suppression
T2 construct: expressed in transfected cells; host or cells: Xenopus laevis oocytes injected with receptor mRNA
T2 sequence (P23415 29-457): T1 sequence (P23415 29-457 P124A) with A96P
Method: Injection volumes were 50–100 nL per cell. […] The holding potential was −60 mV unless otherwise specified.

[3] = target: T3, human GlyR α1 subunit P146 (CysL) substituted with CFP (Homo sapiens, UniProt P23415, P174X); assay: TEVC, oocytes, nonsense suppression, P146 CFP
T3 sequence (P23415 29-457 P174X): T1 sequence (P23415 29-457 P124A) with A96P, P146X
Method: (§1) The cDNA for the human GlyR α1 subunit was in pGEMHE (ThermoFischer Scientific, Bishops Stortford, UK). Site-directed mutagenesis was performed using QuikChange (Agilent Technologies, Milton Keynes, UK) to generate the appropriate codon. For non-canonical amino acid mutants and conventional mutants generated by nonsense suppression, the site of interest was mutated to the TAG stop codon. Receptor mRNA was then prepared by in vitro runoff transcription using the Ambion T7 mMessage mMachine kit (ThermoFischer Scientific, Bishops Stortford, UK). Noncanonical amino acids were ligated to tRNA as previously described.
(§2) Stage V-VI oocytes of Xenopus laevis were harvested and injected with RNAs as described previously. For nonsense suppression experiments, each cell was injected with 50–100 ng each of receptor mRNA and tRNA charged with the appropriate Pro analogue ~48 h before recording. For wild type and conventional mutants, each cell received a single injection of 10–25 ng of receptor mRNA ~24 h before recording. Injection volumes were 50–100 nL per cell.
(§3) As a negative control for suppression experiments at each site, unligated tRNA was co-injected with mRNA in the same manner as charged tRNA. […] Pro recovery (injecting tRNA charged with Pro to regenerate a wild type channel via nonsense suppression) was used alongside Pro analogues as a positive control.
(§4) Two-electrode voltage clamping of Xenopus oocytes was performed using standard electrophysiological procedures as previously, using an OpusXpress system (Axon Instruments, Inc., Union City, CA, USA). All experiments were performed at 22–25 °C. […] The holding potential was −60 mV unless otherwise specified. […] Data were analysed using Prism (GraphPad Software Inc., San Diego, CA, USA), fitting concentration-response data to the four-parameter logistic equation. Statistical analysis was performed using ANOVA with a Dunnett’s multiple comparisons post test.

[4] = target: T4, human GlyR α1 subunit P146 (CysL) substituted with Pip (Homo sapiens, UniProt P23415, P174X); assay: TEVC, oocytes, nonsense suppression, P146 Pip; settings: for EC50: n = 3
T4 sequence (P23415 29-457 P174X): T1 sequence (P23415 29-457 P124A) with A96P, P146X
Method: as §1, §2, §3, §4

[5] = target: T5, human GlyR α1 subunit P146 (CysL) substituted with 2MeP (Homo sapiens, UniProt P23415, P174X); assay: TEVC, oocytes, nonsense suppression, P146 2MeP; settings: for EC50: n = 3
T5 sequence (P23415 29-457 P174X): T1 sequence (P23415 29-457 P124A) with A96P, P146X
Method: as §1, §2, §3, §4

[6] = EC50, Table 3, nonsense suppression
[7] = Table 3, n = 3, read-out: % ImaxTau /ImaxGly
[8] = pEC50, Table 3, nonsense suppression

## NCC(=O)O [Gly, glycine]
[1]
  nH (Hill coefficient): 2.2 ± 0.3
[2]; Table 2, n = 6
  nH: 2.5 ± 0.4
[2]; Table 3, n = 4
  nH: 3.2 ± 1.6
[3]; Table 2, P146 CFP, n = 6
  nH: 3.7 ± 0.6
[3]; Table 3, P146 CFP, n = 3
  nH: 3.0 ± 0.5
[4]; Table 2, n = 5
  nH: 1.9 ± 0.7
[4]; Table 3, n = 3
  nH: 2.7 ± 0.9
[5]; Table 2, n = 6
  nH: 2.2 ± 0.5
[5]; Table 3, n = 3
  nH: 3.6 ± 0.2

## NCCS(=O)(=O)O [Tau, taurine]
[1]
  nH (Hill coefficient): 1.9 ± 0.2
[1]; n = 5, read-out: EC50
  EC50: 2440 µM
[1]; n = 5, read-out: pEC50 (converted)
  EC50: 2440 µM
[1]; n = 5
  % ImaxTau /ImaxGly: 36 ± 2 %
[2]; Table 3, n = 4
  % ImaxTau /ImaxGly: 43 ± 5%
  nH: 1.5 ± 0.3
[2]; n = 4, read-out: EC50
  EC50: 1030 µM
[2]; n = 4, read-out: pEC50 (converted)
  EC50: 1040 µM
[3]
  EC50: 579 µM
[3]; Table 3, P146 CFP, n = 3
  nH: 2.1 ± 0.2
[3]; Table 3, P146 CFP, n = 3, read-out: % ImaxTau /ImaxGly
  Emax: 71 ± 3%
[4]; [6]
  EC50: 757 µM
[4]; Table 3, n = 3
  nH: 1.8 ± 0.3
[4]; [7]
  Emax: 64 ± 7%
[4]; [8]
  EC50: 757 µM
[5]; [6]
  EC50: 3180 µM
[5]; Table 3, n = 3
  nH: 2.4 ± 0.6
[5]; [7]
  Emax: 18 ± 2%
[5]; [8]
  EC50: 3180 µM
